According to patent US12084436B2, “Heterocyclic compound” (Takeda Pharmaceutical Company Limited, priority 2019, dated 2024):

Target: T1, HDAC6 enzyme (Homo sapiens, UniProt Q9UBN7)
T1 construct: prepared by transducing full length HDAC6 gene into Sf-9 insect cells; GST; purchased SignalChem; host or cells: Sf-9 insect cells
T1 sequence (Q9UBN7 1-1215): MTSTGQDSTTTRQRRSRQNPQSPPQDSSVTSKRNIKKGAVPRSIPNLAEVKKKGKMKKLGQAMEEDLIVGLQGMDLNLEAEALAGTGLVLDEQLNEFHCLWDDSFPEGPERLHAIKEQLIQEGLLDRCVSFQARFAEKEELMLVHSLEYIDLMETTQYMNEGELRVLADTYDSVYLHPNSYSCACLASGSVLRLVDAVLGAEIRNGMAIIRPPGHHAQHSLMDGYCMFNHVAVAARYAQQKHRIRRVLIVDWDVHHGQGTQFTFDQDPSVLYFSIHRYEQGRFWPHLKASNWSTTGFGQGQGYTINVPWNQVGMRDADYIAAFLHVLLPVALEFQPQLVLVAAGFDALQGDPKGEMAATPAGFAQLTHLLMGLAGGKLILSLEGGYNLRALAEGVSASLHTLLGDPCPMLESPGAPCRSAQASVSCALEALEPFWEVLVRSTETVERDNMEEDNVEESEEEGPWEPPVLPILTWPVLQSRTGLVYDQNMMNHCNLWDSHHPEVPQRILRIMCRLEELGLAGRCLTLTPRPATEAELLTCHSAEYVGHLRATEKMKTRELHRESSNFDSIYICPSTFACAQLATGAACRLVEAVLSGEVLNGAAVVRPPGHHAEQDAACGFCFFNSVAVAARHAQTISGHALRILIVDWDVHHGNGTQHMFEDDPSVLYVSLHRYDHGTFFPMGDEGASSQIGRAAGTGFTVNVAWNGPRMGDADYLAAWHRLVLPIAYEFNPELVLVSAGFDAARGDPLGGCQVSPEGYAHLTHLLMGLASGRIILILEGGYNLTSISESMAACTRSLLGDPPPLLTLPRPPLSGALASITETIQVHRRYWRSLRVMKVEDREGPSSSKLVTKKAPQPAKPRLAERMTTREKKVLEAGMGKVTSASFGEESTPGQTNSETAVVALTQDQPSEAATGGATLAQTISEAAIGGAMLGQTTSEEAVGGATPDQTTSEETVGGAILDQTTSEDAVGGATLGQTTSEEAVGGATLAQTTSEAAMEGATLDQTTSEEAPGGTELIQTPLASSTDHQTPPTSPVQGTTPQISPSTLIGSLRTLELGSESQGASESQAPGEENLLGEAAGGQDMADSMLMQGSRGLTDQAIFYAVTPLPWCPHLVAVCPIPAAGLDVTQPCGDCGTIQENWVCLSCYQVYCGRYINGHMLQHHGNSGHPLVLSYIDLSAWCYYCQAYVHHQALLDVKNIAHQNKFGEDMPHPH
Experiment: HDAC6 enzyme inhibitory assay (HDAC-Glo I/II Assay kit, luminescence)
Type: biochemical
Settings: 10 μM test compound; wells without enzyme = 100% inhibition; read-out: HDAC6 inhibitory rate (%) (10 μM)
Procedure: HDAC6 Enzyme Inhibitory Assay
HDAC6 enzyme prepared by transducing full length HDAC6 gene into Sf-9 insect cells and purifying by GST affinity column were purchased from SignalChem. Using this enzyme, HDAC6 enzyme inhibitory activities of the compound of the present invention were evaluated. Enzymes were used after preserved at −70° C. HDAC6 enzyme inhibitory activity of the compound of the present invention was measured using HDAC-Glo™ I/II Assay kit (Promega) according to the following experimental method. The test compound diluted with assay buffer (24 mM Tris-HCl (pH 7.5), 1 mM MgCl2, 0.35 mM KCl, 135 mM NaCl, 0.6 mM Glutathione, 0.01% Tween-20) was added to a 384-well plate by each 2 μL. Then, HDAC6 enzyme solution diluted with assay buffer was added thereto by each 4 μL, and the plate was incubated at room temperature for 60 min. After incubated, HDAC substrate-Developer solution prepared according to Promega protocol attached to the assay kit was added to the 384-well plate by each 2 μL, and the enzyme reaction was started. After reacting at room temperature for 20 min, luminescence level was measured using plate reader Envision (PerkinElmer). The inhibitory activity of each compound of Example was calculated as a relative activity value when luminescence level in wells without enzyme is considered as 100% inhibition.

inhibition at 10 µM [%] | SMILES
92 | COCCOc1cccnc1-c1cc(F)cc(-c2nnc(C(F)F)o2)c1 [Example 13a, 2-{3-[5-(difluoromethyl)-1,3,4-oxadiazol-2-yl]-5-fluorophenyl}-3-(2-methoxyethoxy)pyridine]
100 | O=C1NN(c2ccc(F)c(F)c2)Cc2ncc(-c3nnc(C(F)F)o3)cc21 [Example 34b, 3-[5-(difluoromethyl)-1,3,4-oxadiazol-2-yl]-7-(3,4-difluorophenyl)-7,8-dihydropyrido[2,3-d]pyridazin-5(6H)-one]
79 | Cc1ccc(COc2cccnc2-c2cc(F)cc(-c3nnc(C(F)F)o3)c2)cc1 [Example 9a]
97 | O=C1NN(C2CCOCC2)Cc2ccc(-c3nnc(C(F)F)o3)cc21 [Example 28b, 7-[5-(difluoromethyl)-1,3,4-oxadiazol-2-yl]-3-(oxan-4-yl)-3,4-dihydrophthalazin-1(2H)-one]
99 | CN1C(=O)c2cc(-c3nnc(C(F)F)o3)ccc2CC1c1ccc(F)cc1 (single isomer, unassigned; isomer 1) [Example 41b, 7-[5-(difluoromethyl)-1,3,4-oxadiazol-2-yl]-3-(4-fluorophenyl)-2-methyl-3,4-dihydroisoquinolin-1(2H)-one (Optical Isomer 1)]
91 | CCNC(=O)Cn1ccnc1-c1cc(F)cc(-c2nnc(C(F)F)o2)c1 [Example 32a, 2-(2-{3-[5-(difluoromethyl)-1,3,4-oxadiazol-2-yl]-5-fluorophenyl]-1H-imidazol-1-yl)-N-ethylacetamide]
99 | CN1C(=O)c2cc(-c3nnc(C(F)F)o3)ccc2O[C@]1(C)c1ccccc1 [Example 6b, (2R)-6-[5-(difluoromethyl)-1,3,4-oxadiazol-2-yl]-2,3-dimethyl-2-phenyl-2,3-dihydro-4H-1,3-benzoxazin-4-one]
101 | CN(Cc1cncc(Cl)c1)N1Cc2ccc(-c3nnc(C(F)F)o3)cc2C1=O [Example 60c, 2-{[(5-chloropyridin-3-yl)methyl] (methyl)amino}-6-[5-(difluoromethyl)-1,3,4-oxadiazol-2-yl]-2,3-dihydro-1H-isoindol-1-one]
100 | CC1(c2ccc(F)cc2)Oc2ccc(-c3nnc(C(F)F)o3)cc2C(=O)N1CC(F)F (stereo not shown) [Example 56b, 3-(2,2-difluoroethyl)-6-[5-(difluoromethyl)-1,3,4-oxadiazol-2-yl]-2-(4-fluorophenyl)-2-methyl-2,3-dihydro-4H-1,3-benzoxazin-4-one]
100 | CN(Cc1cncc(Cl)c1)N1Cc2ncc(-c3nnc(C(F)F)o3)cc2C1=O [Example 70c, 6-{[(5-chloropyridin-3-yl)methyl](methyl)amino}-3-[5-(difluoromethyl)-1,3,4-oxadiazol-2-yl]-6,7-dihydro-5H-pyrrolo[3,4-b]pyridin-5-one]
98 | Cc1cc(Cn2ccnc2-c2cc(F)cc(-c3nnc(C(F)F)o3)c2)n(C)n1 [Example 64a, 2-(difluoromethyl)-5-(3-{1-[(1,3-dimethyl-1H-pyrazol-5-yl)methyl]-1H-imidazol-2-yl}-5-fluorophenyl)-1,3,4-oxadiazole]
89 | Cc1nnc(Cn2ccnc2-c2cc(F)cc(-c3nnc(C(F)F)o3)c2)o1 [Example 54a, 2-(difluoromethyl)-5-(3-fluoro-5-{1-[(5-methyl-1,3,4-oxadiazol-2-yl)methyl]-1H-imidazol-2-yl}phenyl)-1,3,4-oxadiazole]
100 | CC(c1cccc(F)c1)n1ccnc1-c1cc(-c2nnc(C(F)F)o2)ccn1 (stereo not shown) [Example 92a, 4-[5-(difluoromethyl)-1,3,4-oxadiazol-2-yl]-2-{1-[1-(3-fluorophenyl)ethyl]-1H-imidazol-2-yl}pyridine]
92 | O=C1c2cc(-c3nnc(C(F)F)o3)ccc2CN1Nc1ccc(F)cc1 [Example 30c, 6-[5-(difluoromethyl)-1,3,4-oxadiazol-2-yl]-2-(4-fluoroanilino)-2,3-dihydro-1H-isoindol-1-one]
100 | CN1C(=O)c2cc(-c3nnc(C(F)F)o3)ccc2OC1(C)c1cccc(Cl)c1 (stereo not shown) [Example 19b, 2-(3-chlorophenyl)-6-[5-(difluoromethyl)-1,3,4-oxadiazol-2-yl]-2,3-dimethyl-2,3-dihydro-4H-1,3-benzoxazin-4-one]
98 | FC(F)c1nnc(-c2ccnc(-c3ncc(Cl)n3Cc3ccccn3)c2)o1 [Example 38a, 2-[5-chloro-1-[(pyridin-2-yl)methyl]-1H-imidazol-2-yl}-4-[5-(difluoromethyl)-1,3,4-oxadiazol-2-yl]pyridine]
100 | CN1C(=O)c2cc(-c3nnc(C(F)F)o3)ccc2OC1(C)c1ccc(F)cc1 (single isomer, unassigned; isomer 1) [Example 8b, 6-[5-(difluoromethyl)-1,3,4-oxadiazol-2-yl]-2-(4-fluorophenyl)-2,3-dimethyl-2,3-dihydro-4H-1,3-benzoxazin-4-one (Optical Isomer 1)]
98 | CC(=O)N1CCC(Cn2ccnc2-c2cc(F)cc(-c3nnc(C(F)F)o3)c2)CC1 [Example 31a, 1-{4-[(2-{3-[5-(difluoromethyl)-1,3,4-oxadiazol-2-yl]-5-fluorophenyl}-1H-imidazol-1-yl)methy]piperidin-1-yl}ethan-1-one]
100 | Cn1ccc(OC2CCOCC2)c(-c2cc(-c3nnc(C(F)F)o3)ccn2)c1=O [Example 91a, 4-[5-(difluoromethyl)-1,3,4-oxadiazol-2-yl]-1′-methyl-4′-[(oxan-4-yl)oxy][2,3′-bipyridine]-2′(1′H)-one]
99 | CN(Cc1cccc(C(F)F)c1)N1Cc2ccc(-c3nnc(C(F)F)o3)cc2C1=O [Example 56c, 6-[5-(difluoromethyl)-1,3,4-oxadiazol-2-yl]-2-[{[3-(difluoromethyl)phenyl]methyl} (methyl)amino]-2,3-dihydro-1H-isoindol-1-one]
98 | Cn1ccc(OCc2ccccc2)c(-c2cc(F)cc(-c3nnc(C(F)F)o3)c2)c1=O [Example 35a, 4-(benzyloxy)-3-{3-[5-(difluoromethyl)-1,3,4-oxadiazol-2-yl]-5-fluorophenyl}-1-methylpyridin-2(1H)-one]
101 | Fc1cccc(Cn2ncnc2-c2cc(-c3nnc(C(F)F)o3)ccn2)c1 [Example 85a, 4-[5-(difluoromethyl)-1,3,4-oxadiazol-2-yl]-2-{1-[(3-fluorophenyl)methyl]-1H-1,2,4-triazol-5-yl}pyridine]
100 | COc1ccccc1Cn1ccnc1-c1cc(-c2nnc(C(F)F)o2)ccn1 [Example 84a, 4-[5-(difluoromethyl)-1,3,4-oxadiazol-2-yl]-2-{1-[(2-methoxyphenyl)methyl}-1H-imidazol-2-yl}pyridine]
100 | COC1CCCC(OC(=O)N(Cc2ccc(F)cc2)N2Cc3ccc(-c4nnc(C(F)F)o4)cc3C2=O)C1 (stereo not shown) [Example 24c, 3-methoxycyclohexyl {6-[5-(difluoromethyl)-1,3,4-oxadiazol-2-yl]-1-oxo-1,3-dihydro-2H-isoindol-2-yl}[(4-fluorophenyl)methyl]carbamate]
101 | CN(Cc1cccc(-c2cnccn2)c1)N1Cc2ccc(-c3nnc(C(F)F)o3)cc2C1=O [Example 53c, 6-[5-(difluoromethyl)-1,3,4-oxadiazol-2-yl]-2-(methyl{[3-(pyrazin-2-yl)phenyl]methyl}amino)-2,3-dihydro-1H-isoindol-1-one]
